{"source": "patent US9924714B2", "about": "“Impregnatable matrix of plant, animal or synthetic origin or mixtures of same, containing a uniformly distributed antimicrobial compound, method for impregnating said matrix with a compound, and use thereof in the production of antimicrobial elements” (COMPAÑIA MINERA SAN GERONIMO, priority 2013, dated 2018)", "assay_type_in_all_cases": "cell-based", "key": {"[1]": {"system": "Enterococcus faecalis ATCC29212", "assay": "Sensidisc and thin cloth growth inhibition test (Example 3)", "description": "(§1) In this example, the antimicrobial activity of the invention was determined by testing on sensidiscs. On order to do this, they were prepared 5 mm filter paper discs, embedded with various concentrations of compound Cu4SO4(OH)6 (Alkaline Copper Sulfate) of the study dissolved in DMSO (0 μg, 200 μg, 400 μg, 600 μg, 800 μg). In addition, pieces of cloth of about 2×2 cm were prepared and embedded with the new product. Paper discs and fabric were deposited on a background lawn, which was performed as follows:\n(§2) From a bacterial culture of 16 hours, with the strain of interest, it was performed a 1/30 dilution of the culture with fresh medium and incubated under stirring at 37° C. until reaching the exponential growth phase (D0600 nm 0.4-0.5). It was taken an aliquot of 100 μL of the culture in exponential phase, and deposited in 4 mL of Mueller-Hinton soft agar at 0.8% (previously melted and stabilized at 50° C.). The mixture was deposited on a Petri dish with 20 mL of Mueller-Hinton agar base. Once the agar was gelled, each of the discs with different amounts of the test compound were deposited on the background lawn, and incubated at 37° C. during 48 hours.\n(§3) Experiments were performed in triplicate in independently, using as negative control discs with the solvent DMSO alone and cloth without the product of study. As positive control were used commercial discs used with 30 μg of antibiotic Kanamycin (Km)."}, "[2]": {"system": "Klebsiella pneumoniae ATCC4352", "assay": "Sensidisc and thin cloth growth inhibition test (Example 3)", "description": "as §1, §2, §3"}, "[3]": {"system": "Pseudomonas aeruginosa PAOI", "assay": "Sensidisc and thin cloth growth inhibition test (Example 3)", "description": "as §1, §2, §3"}, "[4]": {"system": "Staphylococcus aureus ATCC25923", "assay": "Sensidisc and thin cloth growth inhibition test (Example 3)", "description": "as §1, §2, §3"}, "[5]": {"system": "Streptococcus pneumonia ATCC14325", "assay": "Sensidisc and thin cloth growth inhibition test (Example 3)", "description": "as §1, §2, §3"}, "[6]": {"system": "Streptococcus pyogenes ATCC2367", "assay": "Sensidisc and thin cloth growth inhibition test (Example 3)", "description": "as §1, §2, §3"}, "[7]": {"system": "Acinetobacter baumannii UDP456", "assay": "Sensidisc and thin cloth growth inhibition test (Example 3)", "set-up": "unit not given here", "description": "as §1, §2, §3"}, "[8]": {"system": "Citrobacter freundii ISP1949/99", "assay": "Sensidisc and thin cloth growth inhibition test (Example 3)", "set-up": "unit not given here", "description": "as §1, §2, §3"}, "[9]": {"system": "Enterobacter aerogenes ATCC13048", "assay": "Sensidisc and thin cloth growth inhibition test (Example 3)", "set-up": "unit not given here", "description": "as §1, §2, §3"}, "[10]": {"system": "Enterococcus faecium ISP133/04", "assay": "Sensidisc and thin cloth growth inhibition test (Example 3)", "set-up": "unit not given here", "description": "as §1, §2, §3"}, "[11]": {"system": "Escherichia coli ATCC25922", "assay": "Sensidisc and thin cloth growth inhibition test (Example 3)", "set-up": "unit not given here", "description": "as §1, §2, §3"}, "[12]": {"system": "Staphylococcus epidermidis", "assay": "Sensidisc and thin cloth growth inhibition test (Example 3)", "set-up": "unit not given here", "description": "as §1, §2, §3"}, "[13]": {"system": "all bacterial strains tested", "assay": "Antibacterial activity of alkaline copper sulfate, summary (Example 3)", "settings": "summary in words of Table 5", "description": "as §1, §2\nExperiments were performed in triplicate in independently, using as negative control discs with the solvent DMSO alone and cloth without the product of study. […]"}}, "data": [{"smiles": "O=S(=O)([O-])[O-].[Cu+2].[Cu+2].[Cu+2].[Cu+2].[OH-].[OH-].[OH-].[OH-].[OH-].[OH-]", "note": "[Alkaline Copper Sulphate, Alkaline Copper Sulfate]", "values": [{"measurement": "Growth inhibition zone", "setting": "[1]; 200 μg on 5 mm disc", "result": "6.0 ± 1.0", "unit": "mm"}, {"measurement": "Growth inhibition zone", "setting": "[1]; 400 μg on 5 mm disc", "result": "6.0 ± 1.0", "unit": "mm"}, {"measurement": "Growth inhibition zone", "setting": "[1]; 600 μg on 5 mm disc", "result": "6.0 ± 1.0", "unit": "mm"}, {"measurement": "Growth inhibition zone", "setting": "[1]; 800 μg on 5 mm disc", "result": "6.0 ± 1.0", "unit": "mm"}, {"measurement": "Growth inhibition zone", "setting": "[2]; 200 μg on 5 mm disc", "result": "7.3 ± 0.6", "unit": "mm"}, {"measurement": "Growth inhibition zone", "setting": "[2]; 400 μg on 5 mm disc", "result": "8.7 ± 0.6", "unit": "mm"}, {"measurement": "Growth inhibition zone", "setting": "[2]; 600 μg on 5 mm disc", "result": "9.7 ± 0.6", "unit": "mm"}, {"measurement": "Growth inhibition zone", "setting": "[2]; 800 μg on 5 mm disc", "result": 10.0, "unit": "mm"}, {"measurement": "Growth inhibition zone", "setting": "[3]; 200 μg on 5 mm disc", "result": "6.3 ± 1.5", "unit": "mm"}, {"measurement": "Growth inhibition zone", "setting": "[3]; 400 μg on 5 mm disc", "result": "6.7 ± 1.2", "unit": "mm"}, {"measurement": "Growth inhibition zone", "setting": "[3]; 600 μg on 5 mm disc", "result": "8.3 ± 0.6", "unit": "mm"}, {"measurement": "Growth inhibition zone", "setting": "[3]; 800 μg on 5 mm disc", "result": "8.3 ± 1.7", "unit": "mm"}, {"measurement": "Growth inhibition zone", "setting": "[4]; 200 μg on 5 mm disc", "result": "6.0 ± 1.0", "unit": "mm"}, {"measurement": "Growth inhibition zone", "setting": "[4]; 400 μg on 5 mm disc", "result": "10.3 ± 0.6", "unit": "mm"}, {"measurement": "Growth inhibition zone", "setting": "[4]; 600 μg on 5 mm disc", "result": "11.7 ± 0.6", "unit": "mm"}, {"measurement": "Growth inhibition zone", "setting": "[4]; 800 μg on 5 mm disc", "result": "14.0 ± 1.0", "unit": "mm"}, {"measurement": "Growth inhibition zone", "setting": "[5]; 200 μg on 5 mm disc", "result": "5.0 ± 1.0", "unit": "mm"}, {"measurement": "Growth inhibition zone", "setting": "[5]; 400 μg on 5 mm disc", "result": "8.0 ± 0.7", "unit": "mm"}, {"measurement": "Growth inhibition zone", "setting": "[5]; 600 μg on 5 mm disc", "result": "9.0 ± 1.0", "unit": "mm"}, {"measurement": "Growth inhibition zone", "setting": "[5]; 800 μg on 5 mm disc", "result": "11.0 ± 1.2", "unit": "mm"}, {"measurement": "Growth inhibition zone", "setting": "[6]; 200 μg on 5 mm disc", "result": "5.0 ± 1.0", "unit": "mm"}, {"measurement": "Growth inhibition zone", "setting": "[6]; 400 μg on 5 mm disc", "result": "6.0 ± 1.0", "unit": "mm"}, {"measurement": "Growth inhibition zone", "setting": "[6]; 600 μg on 5 mm disc", "result": "7.0 ± 1.2", "unit": "mm"}, {"measurement": "Growth inhibition zone", "setting": "[6]; 800 μg on 5 mm disc", "result": "8.0 ± 1.4", "unit": "mm"}, {"measurement": "Growth inhibition zone", "setting": "[7]; 200 μg on 5 mm disc", "result": "11.7 ± 0.6"}, {"measurement": "Growth inhibition zone", "setting": "[7]; 400 μg on 5 mm disc", "result": "15.7 ± 0.6"}, {"measurement": "Growth inhibition zone", "setting": "[7]; 600 μg on 5 mm disc", "result": "17.0 ± 1.0"}, {"measurement": "Growth inhibition zone", "setting": "[7]; 800 μg on 5 mm disc", "result": "19.7 ± 0.6"}, {"measurement": "Growth inhibition zone", "setting": "[8]; 200 μg on 5 mm disc", "result": "8.0 ± 1.0"}, {"measurement": "Growth inhibition zone", "setting": "[8]; 400 μg on 5 mm disc", "result": "10.7 ± 1.5"}, {"measurement": "Growth inhibition zone", "setting": "[8]; 600 μg on 5 mm disc", "result": "11.3 ± 0.6"}, {"measurement": "Growth inhibition zone", "setting": "[8]; 800 μg on 5 mm disc", "result": "11.3 ± 1.5"}, {"measurement": "Growth inhibition zone", "setting": "[9]; 200 μg on 5 mm disc", "result": "7.3 ± 1.5"}, {"measurement": "Growth inhibition zone", "setting": "[9]; 400 μg on 5 mm disc", "result": "9.7 ± 1.5"}, {"measurement": "Growth inhibition zone", "setting": "[9]; 600 μg on 5 mm disc", "result": "9.7 ± 0.6"}, {"measurement": "Growth inhibition zone", "setting": "[9]; 800 μg on 5 mm disc", "result": "9.7 ± 1.5"}, {"measurement": "Growth inhibition zone", "setting": "[10]; 200 μg on 5 mm disc", "result": "6.0 ± 1.0"}, {"measurement": "Growth inhibition zone", "setting": "[10]; 400 μg on 5 mm disc", "result": "6.0 ± 1.0"}, {"measurement": "Growth inhibition zone", "setting": "[10]; 600 μg on 5 mm disc", "result": "6.0 ± 1.0"}, {"measurement": "Growth inhibition zone", "setting": "[10]; 800 μg on 5 mm disc", "result": "6.0 ± 1.0"}, {"measurement": "Growth inhibition zone", "setting": "[11]; 200 μg on 5 mm disc", "result": "13.3 ± 1.4"}, {"measurement": "Growth inhibition zone", "setting": "[11]; 400 μg on 5 mm disc", "result": "13.0 ± 0.7"}, {"measurement": "Growth inhibition zone", "setting": "[11]; 600 μg on 5 mm disc", "result": "15.0 ± 0.7"}, {"measurement": "Growth inhibition zone", "setting": "[11]; 800 μg on 5 mm disc", "result": "13.3 ± 0.7"}, {"measurement": "Growth inhibition zone", "setting": "[12]; 200 μg on 5 mm disc", "result": "12.0 ± 0.6"}, {"measurement": "Growth inhibition zone", "setting": "[12]; 400 μg on 5 mm disc", "result": "14.3 ± 0.6"}, {"measurement": "Growth inhibition zone", "setting": "[12]; 600 μg on 5 mm disc", "result": "13.7 ± 1.5"}, {"measurement": "Growth inhibition zone", "setting": "[12]; 800 μg on 5 mm disc", "result": "14.6 ± 0.6"}, {"measurement": "antibacterial activity", "setting": "[13]; listed as Alkaline Copper Sulfate (OH)6", "result": "antibacterial activity on all bacterial strains tested"}, {"measurement": "antibacterial activity", "setting": "[13]; listed as product of invention", "result": "spectrum of antibacterial activity greater than the hydroxyphosphate copper compounds (II) and copper oxychloride (II)"}]}]}
